In US20160214958A1, “COMPOUNDS AND USE FOR TREATING CANCER” (GLIONOVA AB, priority 2013, published 2016):
Read-outs that look alike come from different tables or passages of the source.

Tests used:
[1] = system: glioma stem cell line U3013; assay: In vitro cancer cell and CSC viability assay (ATP quantification, CellTiterGlo); type: cell-based, human; settings: for EC50: Homo sapiens, read-out: In vitro efficacy (viability) EC50; for potency with respect to S10 (viability): individual isomers of racemic S10
Method: The ability of Examples S1-S23 to selectively induce cytotoxicity in glioma/glioblastoma cancer cells or glioma/glioblastoma cancer stem cells was determined by quantification of ATP production in glioma stem cell line U3013 in the presence of using CellTiterGlo reagent (Promega). Cells were exposed to compound in serial dilution in the range 1 nM to 50 µM for 24 hours and viability assessed with respect to negative control (dmso, no cell death) and positive control (staurosporine, full cell death). […] The EC50 of S10 remained largely similar at 2, 3 and 4 days of incubation. […] The individual isomers (S21-S23) of racemic S10 were evaluated in order to determine the enantiospecific pharmacology of the individual isomers.
Negative (100% DMSO) and positive (10 mM S10 in 100% DMSO) controls were placed in rows 1-4 and 5-8, respectively, of column 12. The wells were diluted with 190 μl of the corresponding growth media and 5 μl of each well of compound solution transferred to quadruplicate wells of a sterile 384-well black clear bottom plate (BD Falcon) containing GSC at 70% confluency in 45 μl growth media. The plate was incubated for 24 hours, after which the plate was removed from the incubator and each well imaged in bright-field using an Operetta Imaging system (PerkinElmer) at 37° C. and 5% CO2 to determine vacuole accumulation at each concentration. The plate was then allowed to cool to room temperature and each well treated with 25 μl freshly CellTiterGlo (Promega) reagent. The plate was shaken for 15 minutes and luminescence measured using a Victor3 (Perkin Elmer) microtiterplate reader. Total luminescence was normalized relative to control and curve fitting performed using GraphPad Prism (v6.02) software.

[2] = Pharmacokinetic evaluation of Vacquinol-1 stereoisomers, plasma and brain; type: in vivo, NMRI (SR/RS) or BALB/c (Vrac) mice; settings: for AUClast Plasma / Cmax Brain / tlast Brain / tlast Plasma / AUC(0-t): mice; for AUC(0-t): brain, read-out: AUClast Brain
Method: The pharmacokinetics of Vacquinol-1 (racemic), Vacquinol-1RS and Vacquinol-1SR, were determined in NMRI (SR/RS) or BALB/c (Vrac) mice following single intravenous (i.v.) or per oral (p.o) administration of 2 or 20 mg/kg Vacquinol-1, respectively. Blood and brain samples were taken from animals at the following nominal time points: 15, 30, and 60 minutes, and 2, 4, 6, 8, 24, 48, 72 and 144 hours after dosing (n=3/time-point). Bioanalytical quantification of Vacquinol-1 was analysed in plasma and brain samples by a UPLC-MS/MS.
Pharmacokinetics were calculated by non-compartmental analysis (NCA) from composite (mean) profiles. Nominal sampling times and dose levels have been used for the NCA calculations.

Compound | EC50 ([1]; U3013, 24 hours exposure) | also measured
O[C@H](c1cc(-c2ccc(C(F)(F)F)nc2)nc2ccccc12)[C@H]1CCCCN1 (mixture of isomers) [Compound S29, mixture of (R)-((R)-piperidin-2-yl)(2-(6-(trifluoromethyl)pyridin-3-yl)quinolin-4-yl)methanol and (S)-((S)-piperidin-2-yl)(2-(6-(trifluoromethyl)pyridin-3-yl)quinolin-4-yl)methanol] |  | In vitro efficacy (viability) EC50 ([1]; U3013, 24 hours exposure): No activity
Cc1ccc(-c2cc([C@@H](O)[C@@H]3CCCCN3)c3ccccc3n2)cc1C#N (racemic) [Compound S24, mixture of 5-(4-((R)-hydroxy((S)-piperidin-2-yl)methyl)quinolin-2-yl)-2-methylbenzonitrile and 5-(4-((S)-hydroxy((R)-piperidin-2-yl)methyl)quinolin-2-yl)-2-methylbenzonitrile] | 32.1 µM | 
CCCN(CCC)C(=O)c1ccc(-c2cc([C@@H](O)[C@@H]3CCCCN3)c3ccccc3n2)cc1 (racemic) [Compound S25, mixture of 4-(4-((R)-hydroxy((S)-piperidin-2-yl)methyl)quinolin-2-yl)-N,N-dipropylbenzamide and 4-(4-((S)-hydroxy((R)-piperidin-2-yl)methyl)quinolin-2-yl)-N,N-dipropylbenzamide] | 35.4 µM | 
OC(c1cc(-c2ccccc2)nc2c1ccc1ccccc12)C1CCCCN1 (stereo not drawn) [Compound S1, (2-phenylbenzo[h]quinolin-4-yl)(piperidin-2-yl)methanol] | 0.39 µM | 
OC(c1cc([C@]23CC4CC[C@H](C[C@H]4C2)C3)nc2c(Cl)cc(Cl)cc12)C1CCCCN1 (stereo partly drawn) [Compound S2, (6,8-dichloro-2-((2R,3aS,5R)-octahydro-1H-2,5-methanoinden-2-yl)quinolin-4-yl)(piperidin-2-yl)methanol] | 0.41 µM | 
Cc1ccc2nc(Nc3ccc(Cl)cc3)cc(C(O)C3CCCCN3)c2c1 (stereo not drawn) [Compound S3, (2-((4-chlorophenyl)amino)-6-methylquinolin-4-yl)(piperidin-2-yl)methanol] | 0.73 µM | 
OC(c1cc(-c2ccc(Cl)cc2)nc2c(Cl)cccc12)C1CCCCN1 (stereo not drawn) [Compound S4, (8-chloro-2-(4-chlorophenyl)quinolin-4-yl)(piperidin-2-yl)methanol] | 1.03 µM | 
OC(c1cc(-c2ccccc2)nc2c(Cl)cc(Cl)cc12)C1CCCCN1 (stereo not drawn) [Compound S5, (6,8-dichloro-2-phenylquinolin-4-yl)(piperidin-2-yl)methanol] | 1.1 µM | 
C#Cc1ccc(-c2cc(C(O)C3CCCCN3)c3ccccc3n2)cc1 (stereo not drawn) [Compound S8, (2-(4-ethynylphenyl)quinolin-4-yl)(piperidin-2-yl)methanol] | 1.69 µM | 
CN(Cc1ccc(-c2cc(C(O)C3CCCCN3)c3ccccc3n2)cc1)C(=O)OC(C)(C)C (stereo not drawn) [Compound S9, tert-butyl 4-(4-(hydroxy(piperidin-2-yl)methyl)quinolin-2-yl)benzyl(methyl)carbamate] | 2.25 µM | 
OC(c1cc(-c2ccccc2)nc2cc(Cl)ccc12)C1CCCCN1 (stereo not drawn) [Compound S11, (7-chloro-2-phenylquinolin-4-yl)(piperidin-2-yl)methanol] | 2.69 µM | 
OC(c1cc(-c2ccc(Cl)cc2Cl)nc2ccccc12)C1CCCCN1 (stereo not drawn) [Compound S12, (2-(2,4-dichlorophenyl)quinolin-4-yl)(piperidin-2-yl)methanol] | 3.22 µM | 
OC(c1cc(-c2ccccc2)nc2ccc(Cl)cc12)C1CCCCN1 (stereo not drawn) [Compound S13, (6-chloro-2-phenylquinolin-4-yl)(piperidin-2-yl)methanol] | 3.62 µM | 
COC(c1cc(-c2ccc(Cl)cc2)nc2ccccc12)C1CCCCN1 (stereo not drawn) [Compound S14, 2-(4-chlorophenyl)-4-(methoxy(piperidin-2-yl)methyl)quinoline] | 5.62 µM | 
COc1ccc(-c2cc(C(O)C3CCCCN3)c3ccccc3n2)cc1 (stereo not drawn) [Compound S15, (2-(4-methoxyphenyl)quinolin-4-yl)(piperidin-2-yl)methanol] | 7.59 µM | 
OC(c1cc(-c2ccc(Cl)cc2)nc2ccccc12)C1CCCN1 (stereo not drawn) [Compound S16, (2-(4-chlorophenyl)quinolin-4-yl)(pyrrolidin-2-yl)methanol] | 8.72 µM | 
OC(c1cc(C(F)(F)F)nc2c(Cl)cc(Cl)cc12)C1CCCCN1 (stereo not drawn) [Compound S17, (6,8-dichloro-2-(trifluoromethyl)quinolin-4-yl)(piperidin-2-yl)methanol] | 9.6 µM | 
OC(c1cc(C2CCCCC2)nc2ccccc12)C1CCCCN1 (stereo not drawn) [Compound S18, (2-cyclohexylquinolin-4-yl)(piperidin-2-yl)methanol] | 12.7 µM | 
CN1CCCCC1C(O)c1cc(-c2ccc(Cl)cc2)nc2ccccc12 (stereo not drawn) [Compound S19, (2-(4-chlorophenyl)quinolin-4-yl)(1-methylpiperidin-2-yl)methanol] | 19.3 µM | 

Now from value to molecule, other results behind:

EC50 ([1]; U3013, 24 hours exposure) | Compound | also measured
13.5 µM | O[C@H](c1cc(-c2ccc(C(F)(F)F)cc2)nc2ccccc12)[C@@H]1CCCCN1 (racemic) [Compound S26, mixture of (R)-((S)-piperidin-2-yl)(2-(4-(trifluoromethyl)phenyl)quinolin-4-yl)methanol and (S)-((R)-piperidin-2-yl)(2-(4-(trifluoromethyl)phenyl)quinolin-4-yl)methanol] | 
38 µM | O[C@H](c1cc(-c2ccc(C(F)(F)F)nc2)nc2ccccc12)[C@@H]1CCCCN1 (racemic) [Compound S27, mixture of (R)-((S)-piperidin-2-yl)(2-(6-(trifluoromethyl)pyridin-3-yl)quinolin-4-yl)methanol and (S)-((R)-piperidin-2-yl)(2-(6-(trifluoromethyl)pyridin-3-yl)quinolin-4-yl)methanol] | 
14.6 µM | O[C@H](c1cc(-c2ccc(C(F)(F)F)cc2)nc2ccccc12)[C@H]1CCCCN1 (racemic) [Compound S28, mixture of (R)-((R)-piperidin-2-yl)(2-(4-(trifluoromethyl)phenyl)quinolin-4-yl)methanol and (S)-((S)-piperidin-2-yl)(2-(4-(trifluoromethyl)phenyl)quinolin-4-yl)methanol] | 
1.25 µM | OC(c1cc(-c2cccc(Cl)c2)nc2ccccc12)C1CCCCN1 (stereo not drawn) [Compound S6, (2-(3-chlorophenyl)quinolin-4-yl)(piperidin-2-yl)methanol] | 
1.59 µM | OC(c1cc(-c2ccc(Cl)c(Cl)c2)nc2ccccc12)C1CCCCN1 (stereo not drawn) [Compound S7, (2-(3,4-dichlorophenyl)quinolin-4-yl)(piperidin-2-yl)methanol] | 
1.72 µM | O[C@H](c1cc(-c2ccc(Cl)cc2)nc2ccccc12)[C@@H]1CCCCN1 [Compound S20, (R)-(2-(4-chlorophenyl)quinolin-4-yl)((S)-piperidin-2-yl)methanol] | IC95 for cell death ([1]; glioblastoma cells (U3013)): 8.9 µM; potency with respect to S10 (viability) [1]: equal or increased potency; AUClast Plasma ([2]; 2 mg/kg i.v.): 62 µg·h/mL; Cmax Brain ([2]; 2 mg/kg i.v.): 1970 ng/mL; tlast Brain ([2]; 2 mg/kg i.v.): 144 h; tlast Plasma ([2]; 2 mg/kg i.v.): 144 h; AUClast Plasma ([2]; 20 mg/kg p.o.): 246 µg·h/mL; Cmax Brain ([2]; 20 mg/kg p.o.): 4840 ng/mL; tlast Brain ([2]; 20 mg/kg p.o.): 144 h; tlast Plasma ([2]; 20 mg/kg p.o.): 144 h; Kp ([2]; NMRI (single stereoisomers SR/RS), BALB/c (racemate), mouse, brain and plasma, 20 mg/kg, after oral dosing, read-out: Cmax exposures ratio (Cmax(brain)/Cmax(plasma))): 2.2; AUC(0-t) ([2]; NMRI (single stereoisomers SR/RS), BALB/c (racemate), mouse, iv, 2 mg/kg i.v.): 52.7 µg·h/mL; AUC(0-t) ([2]; NMRI (single stereoisomers SR/RS), BALB/c (racemate), mouse, po, 20 mg/kg p.o.): 400 µg·h/mL
10.5 µM | O[C@@H](c1cc(-c2ccc(Cl)cc2)nc2ccccc12)[C@@H]1CCCCN1 [Compound S22, (S)-(2-(4-chlorophenyl)quinolin-4-yl)((S)-piperidin-2-yl)methanol] | potency with respect to S10 (viability) [1]: significantly attenuated activity
9.95 µM | O[C@H](c1cc(-c2ccc(Cl)cc2)nc2ccccc12)[C@H]1CCCCN1 [Compound S23, (R)-(2-(4-chlorophenyl)quinolin-4-yl)((R)-piperidin-2-yl)methanol] | potency with respect to S10 (viability) [1]: significantly attenuated activity
